According to patent US7166622B2, “Substituted phenylsulfonamide inhibitors of beta amyloid production” (Wyeth, priority 2002, dated 2007):
Where two headings read alike, the source gives them in different places.

Experiments:
CHO-K1 cells = test: Toxicity in RRA (loss of luciferase signal); conditions: toxicity = loss of signal (<0.75 fold increase)
Description: The beta amyloid inhibitory activity of the compounds of the present invention was determined using the Repressor Release Assay (RRA).
“Fold Increase” refers to the amount of luciferase activity (measured in relative light units) over diluent control. “SEM” refers to the standard error of the mean for fold increase.

beta amyloid production = test: Repressor Release Assay (RRA); assay type: cell-based; conditions: read-out: APPI Fold Increase; for fold induction at 20 µg/mL: Conc 20 μg/ml; for fold induction at 10 µg/mL: Conc 10 μg/ml
Outline: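 CHO-K1 cells transiently co-transfected with pRSVO-luc and an APP-lacI construct, replated, then treated in duplicate for 36-48 h at 37 °C, 5% CO2. Compounds diluted in 25 mM Hepes, with Hepes/1% DMSO as diluent control. Luciferase read-out in relative light units; toxicity scored 1 non-toxic, 0 toxic.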

[1] = Conc 20 μg/ml, 1=non-toxic, 0=toxic
[2] = luciferase activity (RLU) over diluent control
[3] = luciferase activity over diluent control

## CCCCCC[C@@H](c1ccccc1)[C@@H](CO)NS(=O)(=O)c1ccc(Cl)cc1 [Example 65, 4-chloro-N-[(1S,2S)-1-(hydroxymethyl)-2-phenyloctyl]benzenesulfonamide]
CHO-K1 cells; [1]
  (%)APPI Toxicity: 1 (1=non-toxic)
Beta amyloid production; [2]
  fold induction at 20 µg/mL: 1.9

## CC[C@H](C)[C@H](NS(=O)(=O)c1cccc(Cl)c1)C(O)c1ccc(SC)cc1 (stereo partly drawn) [Example 201, 3-chloro-N-((1S,2S)-1-{hydroxy[4-(methylsulfanyl)phenyl]methyl}-2-methylbutyl)benzenesulfonamide]
CHO-K1 cells; Conc 10 μg/ml
  (%)APPI Toxicity: 1 (1=non-toxic)
Beta amyloid production; [3]
  fold induction at 10 µg/mL: 2.45

## CCC[C@H](C)[C@@H](CO)NS(=O)(=O)c1ccc(Cl)cc1 [Example 54, 4-chloro-N-[(1S,2S)-1-(hydroxymethyl)-2-methylpentyl]benzenesulfonamide]
CHO-K1 cells; [1]
  (%)APPI Toxicity: 1 (1=non-toxic)
Beta amyloid production; [2]
  fold induction at 20 µg/mL: 5

## CCCCC[C@H](CC)[C@@H](CO)NS(=O)(=O)c1ccc(Cl)cc1 [Example 61, 4-chloro-N-[(1S,2S)-2-ethyl-1-(hydroxymethyl)-heptyl]benzenesulfonamide]
CHO-K1 cells; [1]
  (%)APPI Toxicity: 1 (1=non-toxic)
Beta amyloid production; [2]
  fold induction at 20 µg/mL: 6.5

## C=CCC(O)(CC=C)[C@@H](NS(=O)(=O)c1ccccc1F)[C@@H](C)CC [Example 264, N-{(1S)-2-allyl-2-hydroxy-1-[(1S)-1-methylpropyl]-4-pentenyl}-2-fluorobenzenesulfonamide]
CHO-K1 cells; Conc 10 μg/ml
  (%)APPI Toxicity: 1 (1=non-toxic)
Beta amyloid production; [3]
  fold induction at 10 µg/mL: 2

## CCCCC(O)(CCCC)[C@@H](NS(=O)(=O)c1ccc(F)cc1)[C@@H](C)CC [Example 238, N-{(1S)-2-butyl-2-hydroxy-1-[(1S)-1-methylpropyl]hexyl}-4-fluorobenzenesulfonamide]
CHO-K1 cells; Conc 10 μg/ml
  (%)APPI Toxicity: 1 (1=non-toxic)
Beta amyloid production; [3]
  fold induction at 10 µg/mL: 4.5

## CC[C@H](C)[C@H](NS(=O)(=O)c1ccccc1F)C(O)CCC1OCCCO1 (stereo partly drawn) [Example 210, N-{(1S)-4-(1,3-dioxan-2-yl)-2-hydroxy-1-[(1S)-1-methylpropyl]butyl}-2-fluorobenzenesulfonamide]
CHO-K1 cells; Conc 10 μg/ml
  (%)APPI Toxicity: 1 (1=non-toxic)
Beta amyloid production; [3]
  fold induction at 10 µg/mL: 1.68

## CC[C@H](C)[C@H](NS(=O)(=O)c1ccc(F)cc1)C(O)C(C)(C)C (stereo partly drawn) [Example 132, 4-fluoro-N-{(1S)-2-hydroxy-3,3-dimethyl-1-[(1S)-1-methylpropyl]butyl}benzenesulfonamide]
CHO-K1 cells; Conc 10 μg/ml
  (%)APPI Toxicity: 1 (1=non-toxic)
Beta amyloid production; [3]
  fold induction at 10 µg/mL: 1.54

## C/C=C(\C)C(O)(/C(C)=C/C)[C@@H](NS(=O)(=O)c1ccc(Cl)cc1)[C@@H](C)CC (stereo partly drawn) [Example 232, 4-chloro-N-{(1S,3E)-2-hydroxy-3-methyl-2-[(1E)-1-methyl-1-propenyl]-1-[(1S)-1-methylpropyl]-3-pentenyl}benzenesulfonamide]
CHO-K1 cells; Conc 10 μg/ml
  (%)APPI Toxicity: 1 (1=non-toxic)
CHO-K1 cells; Conc 20 μg/ml
  (%)APPI Toxicity: 1 (1=non-toxic)
Beta amyloid production; [3]
  fold induction at 10 µg/mL: 1.94
  fold induction at 20 µg/mL: 4.2

## CC[C@H](C)[C@H](NS(=O)(=O)c1cccc(Cl)c1)C(O)C=C(C)C (stereo partly drawn) [Example 197, 3-chloro-N-{(1S)-2-hydroxy-4-methyl-1-[(1S)-1-methylpropyl]-3-pentenyl}benzenesulfonamide]
CHO-K1 cells; Conc 10 μg/ml
  (%)APPI Toxicity: 1 (1=non-toxic)
Beta amyloid production; [3]
  fold induction at 10 µg/mL: 1.54

## CC[C@H](C)[C@H](NS(=O)(=O)c1ccc(F)cc1)C(C)O (stereo partly drawn) [Example 126, 4-fluoro-N-[(1S,2S)-1-(1-hydroxyethyl)-2-methylbutyl]benzenesulfonamide]
CHO-K1 cells; Conc 3 μg/ml
  (%)APPI Toxicity: 1 (1=non-toxic)
CHO-K1 cells; Conc 10 μg/ml
  (%)APPI Toxicity: 1 (1=non-toxic)
Beta amyloid production; Conc 3 μg/ml, luciferase activity over diluent control
  fold induction at 3 µg/mL: 1.54
Beta amyloid production; [3]
  fold induction at 10 µg/mL: 1.52

## CC#CC(O)[C@@H](NS(=O)(=O)c1ccc(Cl)cc1)[C@@H](C)CC (stereo partly drawn) [Example 181, 4-chloro-N-{(1S)-2-hydroxy-1-[(1S)-1-methylpropyl]-3-pentynyl}benzenesulfonamide]
CHO-K1 cells; Conc 10 μg/ml
  (%)APPI Toxicity: 1 (1=non-toxic)
Beta amyloid production; [3]
  fold induction at 10 µg/mL: 1.76

## C=C(C)C(O)(C(=C)C)[C@@H](NS(=O)(=O)c1ccc(Cl)cc1)[C@@H](C)CC [Example 230, 4-chloro-N-{(1S)-2-hydroxy-2-isopropenyl-3-methyl-1-[(1S)-1-methylpropyl]-3-butenyl}benzenesulfonamide]
CHO-K1 cells; Conc 10 μg/ml
  (%)APPI Toxicity: 1 (1=non-toxic)
CHO-K1 cells; Conc 20 μg/ml
  (%)APPI Toxicity: 1 (1=non-toxic)
Beta amyloid production; [3]
  fold induction at 10 µg/mL: 1.75
  fold induction at 20 µg/mL: 1.9

## C/C=C(\C)C(O)(/C(C)=C/C)[C@@H](NS(=O)(=O)c1ccc(Br)cc1)[C@@H](C)CC (stereo partly drawn) [Example 220, 4-bromo-N-{(1S,3E)-2-hydroxy-3-methyl-2-[(1E)-1-methyl-1-propenyl]-1-[(1S)-1-methylpropyl]-3-pentenyl}benzenesulfonamide]
CHO-K1 cells; Conc 10 μg/ml
  (%)APPI Toxicity: 1 (1=non-toxic)
Beta amyloid production; [3]
  fold induction at 10 µg/mL: 3.29

## CC[C@H](C)[C@@H](CO)NS(=O)(=O)c1ccc(F)cc1 [Example 10, 4-fluoro-N-[(1S,2S)-1-(hydroxymethyl)-2-methylbutyl]benzenesulfonamide]
CHO-K1 cells; Conc 20 μg/ml
  (%)APPI Toxicity: 1 (1=non-toxic)
Beta amyloid production; [3]
  fold induction at 20 µg/mL: 3.3

## O=S(=O)(NC(CO)(c1ccccc1)C1CCC1)c1ccc(Cl)cc1 (centres unmarked) [Example 125, 4-chloro-N-(1-cyclobutyl-2-hydroxy-1-phenylethyl)benzenesulfonamide]
CHO-K1 cells; Conc 20 μg/ml
  (%)APPI Toxicity: 1 (1=non-toxic)
Beta amyloid production; [3]
  fold induction at 20 µg/mL: 1.8

## C=C(C)C(O)[C@@H](NS(=O)(=O)c1ccc(Br)cc1)[C@@H](C)CC (stereo partly drawn) [Example 157, 4-bromo-N-{(1S)-2-hydroxy-3-methyl-1-[(1S)-1-methylpropyl]-3-butenyl}benzenesulfonamide]
CHO-K1 cells; Conc 10 μg/ml
  (%)APPI Toxicity: 1 (1=non-toxic)
Beta amyloid production; [3]
  fold induction at 10 µg/mL: 1.96

## CC[C@H](C)[C@@H](CO)N(Cc1ccc(-c2ccccc2)cc1)S(=O)(=O)c1ccc(Cl)cc1 [Example 41, N-([1,1′-biphenyl]-4-ylmethyl)-4-chloro-N-[(1S,2S)-1-(hydroxymethyl)-2-methylbutyl]benzenesulfonamide]
CHO-K1 cells; Conc 20 μg/ml
  (%)APPI Toxicity: 1 (1=non-toxic)
Beta amyloid production; [3]
  fold induction at 20 µg/mL: 4.9

## CC[C@H](C)[C@H](NS(=O)(=O)c1ccccc1F)C(O)c1ccc(Cl)cc1 (stereo partly drawn) [Example 208, N-{(1S,2S)-1-[(4-chlorophenyl) (hydroxy)methyl]-2-methylbutyl}-2-fluorobenzenesulfonamide]
CHO-K1 cells; Conc 10 μg/ml
  (%)APPI Toxicity: 1 (1=non-toxic)
Beta amyloid production; [3]
  fold induction at 10 µg/mL: 2.01

## C=CCCC(O)(CCC=C)[C@@H](NS(=O)(=O)c1ccc(F)cc1)[C@@H](C)CC [Example 246, N-{(1S)-2-(3-butenyl)-2-hydroxy-1-[(1S)-1-methylpropyl]-5-hexenyl}-4-fluorobenzenesulfonamide]
CHO-K1 cells; Conc 10 μg/ml
  (%)APPI Toxicity: 1 (1=non-toxic)
CHO-K1 cells; Conc 20 μg/ml
  (%)APPI Toxicity: 1 (1=non-toxic)
Beta amyloid production; [3]
  fold induction at 10 µg/mL: 2.42
  fold induction at 20 µg/mL: 1.9

## CC[C@H](C)[C@H](NS(=O)(=O)c1ccc(Br)cc1)C(O)(c1ccc(Cl)cc1)c1ccc(Cl)cc1 [Example 218, N-{(1S,2S)-1-[bis(4-chlorophenyl) (hydroxy)methyl]-2-methylbutyl}-4-bromobenzenesulfonamide]
CHO-K1 cells; Conc 10 μg/ml
  (%)APPI Toxicity: 1 (1=non-toxic)
Beta amyloid production; [3]
  fold induction at 10 µg/mL: 1.55

## CC[C@H](C)[C@H](NS(=O)(=O)c1cccc(Cl)c1)C(O)(CC)CC [Example 255, 3-chloro-N-{(1S)-2-ethyl-2-hydroxy-1-[(1S)-1-methylpropyl]butyl}benzenesulfonamide]
CHO-K1 cells; Conc 10 μg/ml
  (%)APPI Toxicity: 1 (1=non-toxic)
Beta amyloid production; [3]
  fold induction at 10 µg/mL: 2.03

## CSCC[C@H](CO)NS(=O)(=O)c1cccc(Cl)c1 [Example 107, 3-chloro-N-[(1R)-1-(hydroxymethyl)-3-(methylthio)propyl]benzenesulfonamide]
CHO-K1 cells; Conc 1 μg/ml
  (%)APPI Toxicity: 1 (1=non-toxic)
Beta amyloid production; Conc 1 μg/ml, luciferase activity over diluent control
  fold induction at 1 µg/mL: 2.35

## CCC(O)[C@@H](NS(=O)(=O)c1ccc(Cl)cc1)[C@@H](C)CC (stereo partly drawn) [Example 176, 4-chloro-N-{(1S)-2-hydroxy-1-[(1S)-1-methylpropyl]butyl}benzenesulfonamide]
CHO-K1 cells; Conc 10 μg/ml
  (%)APPI Toxicity: 1 (1=non-toxic)
Beta amyloid production; [3]
  fold induction at 10 µg/mL: 2.63

## CCCCC(O)[C@@H](NS(=O)(=O)c1ccc(Br)cc1)[C@@H](C)CC (stereo partly drawn) [Example 148, 4-bromo-N-{(1S)-2-hydroxy-1-[(1S)-1-methylpropyl]hexyl}benzenesulfonamide]
CHO-K1 cells; Conc 10 μg/ml
  (%)APPI Toxicity: 1 (1=non-toxic)
Beta amyloid production; [3]
  fold induction at 10 µg/mL: 1.88

## CC[C@@H](c1ccccc1)[C@@H](CO)NS(=O)(=O)c1ccc(Br)cc1 [Example 83, 4-bromo-N-[(1S,2S)-1-(hydroxymethyl)-2-phenylbutyl]benzenesulfonamide]
CHO-K1 cells; [1]
  (%)APPI Toxicity: 1 (1=non-toxic)
Beta amyloid production; [2]
  fold induction at 20 µg/mL: 3.4

## CCCCC(O)[C@@H](NS(=O)(=O)c1ccc(Cl)cc1)[C@@H](C)CC (stereo partly drawn) [Example 169, 4-chloro-N-{(1S)-2-hydroxy-1-[(1S)-1-methylpropyl]hexyl}benzenesulfonamide]
CHO-K1 cells; Conc 10 μg/ml
  (%)APPI Toxicity: 1 (1=non-toxic)
Beta amyloid production; [3]
  fold induction at 10 µg/mL: 2.85

## CCCCCC(O)(CCCCC)[C@@H](NS(=O)(=O)c1ccc(F)cc1)[C@@H](C)CC [Example 237, 4-fluoro-N-{(1S)-2-hydroxy-1-[(1S)-1-methylpropyl]-2-pentylheptyl}benzenesulfonamide]
CHO-K1 cells; Conc 10 μg/ml
  (%)APPI Toxicity: 1 (1=non-toxic)
Beta amyloid production; [3]
  fold induction at 10 µg/mL: 6.05

## CCC[C@H](C)[C@@H](CO)NS(=O)(=O)c1ccc(Br)cc1 [Example 76, 4-bromo-N-[(1S,2S)-1-(hydroxymethyl)-2-methylpentyl]benzenesulfonamide]
CHO-K1 cells; [1]
  (%)APPI Toxicity: 1 (1=non-toxic)
Beta amyloid production; [2]
  fold induction at 20 µg/mL: 5.8

## CCCCCC[C@H](CC)[C@@H](CO)NS(=O)(=O)c1ccc(Cl)cc1 [Example 88, 4-Chloro-N-[(1 S,2S)-2-ethyl-1-(hydroxymethyl)octyl]benzenesulfonamide]
CHO-K1 cells; [1]
  (%)APPI Toxicity: 1 (1=non-toxic)
Beta amyloid production; [2]
  fold induction at 20 µg/mL: 6.4
